Laboratory results as given in EP1457483A1, “Cationic lipids with serine backbone” (Ruhr-Universität Bochum, priority 2003, dated 2004).

Tested on: COS-7 cells
Assay: Automated lipofection screening: GFP-luciferase reporter gene transfer (luciferase activity per protein content)
Format: cell-based, African green monkey
Conditions: for Maximum transfection efficiency, MW (mean value), Helper lipid: DOPE / Maximum transfection efficiency, MW (mean value), Helper lipid: CHOL / Maximum transfection efficiency, MW (mean value), Helper lipid: without: pEGFPLuc plasmid, point is thousands separator; for Maximum transfection efficiency, MW (mean value), Helper lipid: DOPE: cationic/helper lipid 1:0.5 with DOPE; for Maximum transfection efficiency, MW (mean value), Helper lipid: DOPE / Maximum transfection efficiency, MW (mean value), Helper lipid: CHOL: at the LDR giving the maximum; for Maximum transfection efficiency, MW (mean value), Helper lipid: CHOL: cationic/helper lipid 1:0.5 with cholesterol; for Maximum transfection efficiency, MW (mean value), Helper lipid: without: no helper lipid, at the LDR (1:1-15:1) giving the maximum; for times higher activity in only one of the helper lipid combinations: best combination against the other combinations
Experimental: Screening the combinatorial lipid library for lipofection properties: Goal of this first step was to compare transfection efficiency of these structurally related cationic lipids with systematically modified hydrocarbon chain compositions for the development of suitable lipofection reagents and protocols and to study the relationship between structure and transfection efficiency of this new class of cationic lipids for gene transfer. All lipids (MS-1 to MS-50, table 1) were tested using a standard protocol: From each lipid, twenty four different lipoplexes were formed containing either no helper lipid or the helper lipids DOPE and CHOL at molar amounts (1:0.5), respectively, using eight different lipid:DNA-charge ratios (LDR) from 1:1 - 15:1, resulting in a lipofection profile for each lipid. The COS-7 cell-line was used for this lipofection study since COS-7 is easy to transfect and differences between the lipids are easy to identify.
Cell culture: SV40 transformed African green monkey kidney cell line COS-7 (ATCC CRL-1651) was routinely passaged in DMEM (GIBCO BRL, Karlsruhe, Germany), respectively, supplemented with 1% L-glutamin solution (100x), 1% Penicillin/Streptomycin solution (100x) (GIBCO BRL, Karlsruhe, Germany), and 10% FCS (BioWhittaker, Verviers, Belgium) at 37°C with 5% CO2 in humidified atmosphere. For the screening cells were maintained in 96-well culture plates (Greiner, Frickenhausen, Germany) in 100 µl DMEM, 10 % FCS, 1 % Penicillin-streptomycin in a humidified atmosphere at 37 °C/5 % CO2. 24 h prior to transfection, the cells were seeded into the microtiter plate at 10,000 cells per well to reach a confluency of 50 % at the time of transfection. Dendritic cells: Dendritic cells (DC) were derived from highly purified circulating CD14(+) monocytes: In a first step, peripheral blood mononuclear leukocytes (PBL) from healthy control persons were isolated by Ficoll-Paque (Pharmacia Biotech AB, Uppsala, Sweden) density centrifugation. The following immunomagnetic purification of the monocytes from PBL was performed using CD14 Microbeads and MiniMACS high gradient magnetic separation columns (Miltenyi Biotech, Bergisch Gladbach, Germany) according to manufacturer's instructions. Isolated monocytes (5 x 10^5/well) were cultured in RPMI supplemented with 10 % FCS, or serum-free Macrophage-SFM medium (GIBCO BRL, Karlsruhe, Germany) supplemented with human recombinant GM-CSF (0.05µg/ml) and IL-4 (0.025µg/ml) (PromoCell, Heidelberg, Germany) in 6-well plates. Aliquots of the cells were reanalyzed by FACS with anti-CD14 mAbs (Pharmingen, San Diego, CA). After 5-6 days non-adherent cells were collected and purity of DCs was determined by FACS analysis using a FACSort flow cytometer (Becton Dickinson, Mountain View, CA) and the CellQuest software for data processing as recently described (Jantscheff, P. et al., J. Immunol. Methods 163(1):91-7 (1993)).

| SMILES | Maximum transfection efficiency, MW (mean value), Helper lipid: DOPE | Maximum transfection efficiency, MW (mean value), Helper lipid: CHOL | Maximum transfection efficiency, MW (mean value), Helper lipid: without | times higher activity in only one of the helper lipid combinations |
| --- | --- | --- | --- | --- |
| CCCCCCCCCCCCN(CCCCCCCCCCCC)[C@@H](CO)C(=O)NCCN [compound 1] | 172.116 RLU | 264.581 RLU | 211.937 RLU | – |
| CCCCCCCCCCCCCCCCCC[N+](C)(CCCCCCCCCCCCCCCCCC)[C@@H](CO)C(=O)NCCN [compound 29] | 24.095 RLU | 137.404 RLU | 43.875 RLU | – |
| CCCCCCCCCCCCCCCC[N+](C)(CCCCCCCCCCCCCCCC)[C@@H](CO)C(=O)NCCCN [MS-33] | – | – | – | 2.5 - 11.5 times |
| CCCCCCCCCCCCN(CCCCCCCCCCCC)[C@@H](CO)C(=O)NCCCCN [compound 11] | 2.621 RLU | 327 RLU | 293 RLU | – |
| CCCCCCCCCCCCCCCCCCN(CCCCCCCCCCCCCCCCCC)[C@@H](CO)C(=O)NCCCCCCN [compound 24] | 21.009 RLU | 20.328 RLU | 920 RLU | – |
| CCCCCCCCCCCCCCCCN(CCCCCCCCCCCCCCCC)[C@@H](CO)C(=O)NCCN [compound 3] | 18.255 RLU | 66.096 RLU | 4.049 RLU | – |
| CCCCCCCCCCCCCCCC[N+](C)(CCCCCCCCCCCCCCCC)[C@@H](CO)C(=O)NCCCCN [compound 38] | 71.641 RLU | 156.698 RLU | 30.747 RLU | – |
| CCCCCCCCCCCCCCN(CCCCCCCCCCCCCC)[C@@H](CO)C(=O)NCCCCN [compound 12] | 167.970 RLU | 274.483 RLU | 440.931 RLU | – |
| CCCCCCCC/C=C\CCCCCCCC[N+](C)(CCCCCCCC/C=C\CCCCCCCC)[C@@H](CO)C(=O)NCCN [compound 30] | 57.187 RLU | 251.177 RLU | 99.415 RLU | – |
| CCCCCCCC/C=C\CCCCCCCC[N+](C)(CCCCCCCC/C=C\CCCCCCCC)[C@@H](CO)C(=O)NCCCCN [compound 40] | 48.692 RLU | 119.285 RLU | 12.263 RLU | – |
| CCCCCCCCCCCCCCCCCCN(CCCCCCCCCCCCCCCCCC)[C@@H](CO)C(=O)NCCCN [compound 9] | 10.033 RLU | 76.850 RLU | 2.183 RLU | – |
| CCCCCCCCCCCCN(CCCCCCCCCCCC)[C@@H](CO)C(=O)NCCCCCN [compound 16] | 49.071 RLU | 45.849 RLU | 442 RLU | – |
| CCCCCCCC/C=C\CCCCCCCC[N+](C)(CCCCCCCC/C=C\CCCCCCCC)[C@@H](CO)C(=O)NCCCCCCN [compound 50] | 39.590 RLU | 70.812 RLU | 17.315 RLU | – |
| CCCCCCCCCCCCN(CCCCCCCCCCCC)[C@@H](CO)C(=O)NCCCCCCN [compound 21] | 308.849 RLU | 190.171 RLU | 118.131 RLU | – |
| CCCCCCCCCCCCCCCCCC[N+](C)(CCCCCCCCCCCCCCCCCC)[C@@H](CO)C(=O)NCCN [MS-29] | – | – | – | 2.5 - 11.5 times |
| CCCCCCCC/C=C\CCCCCCCCN(CCCCCCCC/C=C\CCCCCCCC)[C@@H](CO)C(=O)NCCCCN [compound 15] | 340.414 RLU | 243.273 RLU | 232.694 RLU | – |
| CCCCCCCC/C=C\CCCCCCCC[N+](C)(CCCCCCCC/C=C\CCCCCCCC)[C@@H](CO)C(=O)NCCCCCN [compound 45] | 69.821 RLU | 64.111 RLU | 14.092 RLU | – |
| CCCCCCCCCCCCCCCCN(CCCCCCCCCCCCCCCC)[C@@H](CO)C(=O)NCCCCCN [compound 18] | 26.400 RLU | 42.592 RLU | 22.150 RLU | – |
| CCCCCCCCCCCCCC[N+](C)(CCCCCCCCCCCCCC)[C@@H](CO)C(=O)NCCN [compound 27] | 196.400 RLU | 311.891 RLU | 21.934 RLU | – |
| CCCCCCCC/C=C\CCCCCCCCN(CCCCCCCC/C=C\CCCCCCCC)[C@@H](CO)C(=O)NCCN [compound 5] | 22.324 RLU | 7.344 RLU | 7.395 RLU | – |
| CCCCCCCCCCCCCCCC[N+](C)(CCCCCCCCCCCCCCCC)[C@@H](CO)C(=O)NCCCCCCN [compound 48] | 73.318 RLU | 96.148 RLU | 62.022 RLU | – |
| CCCCCCCCCCCCCCCCN(CCCCCCCCCCCCCCCC)[C@@H](CO)C(=O)NCCCCCCN [compound 23] | 27.118 RLU | 16.398 RLU | 14.969 RLU | – |
| CCCCCCCCCCCCN(CCCCCCCCCCCC)[C@@H](CO)C(=O)NCCCN [compound 6] | 6.392 RLU | 583 RLU | 944 RLU | – |
